These are literature values, as cited in patent publication US11529304B2, “Method for dyeing keratin material by means of a dyeing agent and an acidic posttreatment agent” (Henkel AG & Co. KGaA, priority 2018, dated 2022).

For the series the following is noted: for solubility in water: 25° C.

For the compound “mixture of the sodium salts of mono- and sisulfonic acids of 2-(2-quinolyl)-1H-indene-1,3(2H)-dione [Acid Yellow 3]”, the solubility in water is recorded as 20 g/L.
For `O=C([O-])c1c(Cl)c(Cl)c(Cl)c(Cl)c1-c1c2c(Br)cc(=O)c(Br)c-2oc2c(Br)c(O)cc(Br)c12.O=C([O-])c1c(Cl)c(Cl)c(Cl)c(Cl)c1-c1c2c(Br)cc(=O)c(Br)c-2oc2c(Br)c(O)cc(Br)c12.[Na+].[Na+]` [Acid Red 92, disodium salt of 3,4,5,6-tetrachloro-2-(1,4,5,8-tetrabromo-6-hydroxy-3-oxoxanthen-9-yl)benzoic acid], the solubility in water entry is on record as “greater than 10 g/L”.
On to `O=S(=O)([O-])c1ccc(N=Nc2c(O)ccc3ccccc23)cc1.[Na+]` [Acid Orange 7, sodium salt of 4-[(2-hydroxy-1-naphthyl)azo]benzene sulphonate], for which the solubility in water entry is “more than 7 g/L”.
As for `O=C([O-])C1=NN(c2ccc(S(=O)(=O)[O-])cc2)C(=O)C1N=Nc1ccc(S(=O)(=O)[O-])cc1.[Na+].[Na+].[Na+]` (centres unmarked) [Acid Yellow 23], the “solubility in water (in words)” value (at 25° C.) is “highly soluble”.
Turning to `Nc1cc(S(=O)(=O)[O-])cc2cc(S(=O)(=O)[O-])c(N=Nc3ccccc3)c(O)c12.[Na+].[Na+]` [Acid Red 33, diantrium salt of 5-amino-4-hydroxy-3-(phenylazo)-naphthalene-2,7-disulphonate], the solubility in water was 2.5 g/L.
